Read-outs that look alike come from different tables or passages of the source.
Key:
[1] = test system: Collagen-induced arthritis in DBA/1J mice; assay: Collagen-induced arthritis (CIA) mouse model, macroscopic paw scoring; type: in vivo; conditions: 30 mg/kg/day once daily oral gavage, vehicle = 100.0
Procedure: CIA mouse model was induced in DBA/1J mice (Japan Charles River Breeding Laboratories, Kanagawa, Japan) with 5 to 6 weeks of age. Animals were maintained at a temperature of 20±5° C. and a relative humidity of 40˜60%.
Bovine type II collagen (CII, 2 mg/ml dissolved in 0.05 M acetic acid, Chondrex, Redmond, Wash.) was emulsified in equal volumes of Freund's complete adjuvant (4 mg/ml of Mycobacterium tuberculosis strain H37Ra; Chondrex, Redmond, Wash.). On day 0, mice were immunized intradermally at the base of the tail with 100 μg bovine type II collagen emulsified in Freund's complete adjuvant. On day 21, all mice were boosted with an intraperitoneal injection of 100 μg type II collagen.
These compounds were dissolved in NMP/20% cyclodextrin/PEG400 5:45:50 solution and filtered by […] membrane filter. All the test substances were administered once daily at 30 mg/kg/day by oral gavage for 3 weeks.
The gradual onset of arthritis usually starts approximately 3 weeks after initial immunization. The progression of CIA was evaluated by the macroscopic scoring of paws at intervals of 3 days. The edema and swelling of each paw was scored visually as was described previously, using a scale of 0-4, where 0=no visible abnormalities, 1=mild redness or swelling of the wrist or up to three inflamed digits, 2=more than three inflamed digits or moderate redness and swelling of the ankle or wrist, 3=severe ankle and wrist inflammation, 4=extensive ankle and wrist inflammation including all digits. Therefore, the score of each mouse was calculated for the four limbs (maximum total score of 16 for each mouse) (Courtenay J S, Dallman M J, Dayan A D, et al., Immunisation against heterologous type II collagen induces arthritis in mice, Nature, 1980, 283, 666-668)
Arthritis was considered to be present if the score was >2. The blind scoring was performed by four independent observers. In this study, data was calculated by following equation. […] Results

[2] = test system: THP-1 cells; assay: SYK-dependent TNF-α release assay (IgG stimulation), ELISA; type: cell-based; conditions: THP-1 cells on human IgG-coated plate, 18 hours; read-out: TNF-α release inhibition, IgG stimulation IC50
Procedure: In order to address cellular potency of Compounds of Formula (I), TNF-a production was measured on treatment of a series of concentration of SYK inhibitor in THP-1 cells.
For SYK-dependent TNF-α release assay (i.e., via IgG stimulation), THP-1 cells derived from human monocytic cells were obtained from the American Type Culture Collection (ATCC, Manassas, Va.). This cell line was maintained with a Roswell Park Memorial Institute (RPMI) medium (GIBCO) containing 10% fetal bovine serum (FBS; GIBCO) and 0.05 mM solution of 2-mercaptoethanol. The THP-1 cells were seeded at 1×10^5 cells/100 μL/well into human IgG (10 ng/well, INVITROGEN)-coated 96 well culture plate, and serially diluted compound was then added. After an 18 hours of incubation period at 37° C., supernatants were collected for the determination of the TNF-α level by enzyme-linked immunosorbent assay (ELISA), and the remaining cells were subjected to an MTT (yellow tetrazolium salt) assay to determine the cytotoxic effects of the compound. The IC50 value of the test compound was calculated at Gradpad Prism 5 unless otherwise specified.

[3] = target: full-length human SYK (Homo sapiens (Human), UniProt P43405); assay: Inhibition of enzymatic SYK kinase activity (LANCE Ulight TK peptide); type: biochemical
Procedure: Compounds of the present invention were assayed to measure their capacity to inhibit a spleen tyrosine kinase (SYK).
Compounds of the invention were initially diluted to 10 mM in 100% DMSO (CALBIOCHEM™) for storage and made into kinase buffer solution to create a compound concentration ranging from 1 uM and 10 uM. Serial dilutions of compounds of the invention were dispensed into a 96-well plate (GREINER BIOSCIENCES™) at 6 μL each. Purified full-length human SYK (CARNA BIOSCIENCES™) were diluted in kinase buffer and added to the compound solutions and pre-incubated for 30 minutes at room temperature. […] The reaction mixture was incubated for 1 hour. Following the incubation, the stop solution made with EDTA, water, and Lance detection buffer ([…]™) was added (12 μL each) to stop phosphorylation.

[4] = ATP at Km (15 uM), 30 min pre-incubation

## CCn1cc(C(=O)C2CC2)c2cc(Nc3nccc(-n4cc(CN5C[C@H](O)CO5)c(C)n4)n3)ccc21 [Compound 6, (S)-cyclopropyl(1-ethyl-5-(4-(4-((4-hydroxyisoxazolidin-2-yl)methyl)-3-methyl-1H-pyrazol-1-yl)pyrimidin-2-ylamino)-1H-indol-3-yl)methanone]
[1]; day 4
  CIA index (arthritic score of test group / vehicle group x 100): 0.0 ± 0.0%
[1]; day 7
  CIA index (arthritic score of test group / vehicle group x 100): 10.9 ± 8.9%
[1]; day 10
  CIA index (arthritic score of test group / vehicle group x 100): 32.3 ± 11.5%
[1]; day 13
  CIA index (arthritic score of test group / vehicle group x 100): 45.3 ± 10.5%
[1]; day 17
  CIA index (arthritic score of test group / vehicle group x 100): 53.3 ± 7.4%
[1]; day 19
  CIA index (arthritic score of test group / vehicle group x 100): 63.4 ± 4.0%
[2]
  IC50: 0.057 µM
[3]; [4]
  IC50: 0.00469 µM

## Cc1nn(-c2ccnc(Nc3ccc4c(c3)c(C(=O)C3CC3)cn4CC(F)(F)F)n2)cc1CN1CC(C)(O)CO1 (stereo not drawn) [Compound 16, cyclopropyl(5-(4-(4-((4-hydroxy-4-methylisoxazolidin-2-yl)methyl)-3-methyl-1H-pyrazol-1-yl)pyrimidin-2-ylamino)-1-(2,2,2-trifluoroethyl)-1H-indol-3-yl)methanone]
[2]
  IC50: 0.226 µM
[3]; [4]
  IC50: 0.0142 µM

## Cc1cnc(Nc2ccc3c(c2)c(C(=O)C2CC2)cn3C)nc1-n1cc(CN2C[C@H](O)CO2)c(C)n1 [Compound 19, (S)-cyclopropyl(5-(4-(4-((4-hydroxyisoxazolidin-2-yl)methyl)-3-methyl-1H-pyrazol-1-yl)-5-methylpyrimidin-2-ylamino)-1-methyl-1H-indol-3-yl)methanone]
[2]
  IC50: 0.821 µM
[3]; [4]
  IC50: 0.271 µM

## Cc1nn(-c2ccnc(Nc3ccc4c(c3)c(C(=O)C3CC3)cn4CCF)n2)cc1CN1C[C@H](O)CO1 [Compound 23, (S)-cyclopropyl(1-(2-fluoroethyl)-5-(4-(4-((4-hydroxyisoxazolidin-2-yl)methyl)-3-methyl-1H-pyrazol-1-yl)pyrimidin-2-ylamino)-1H-indol-3-yl)methanone]
[2]
  IC50: 0.111 µM
[3]; [4]
  IC50: 0.00371 µM

## CCn1cc(C(=O)C2CC2)c2cc(Nc3nccc(-n4cc(CN5C[C@H](O)CO5)c(C5CC5)n4)n3)ccc21 [Compound 25, (S)-cyclopropyl(5-(4-(3-cyclopropyl-4-((4-hydroxyisoxazolidin-2-yl)methyl)-1H-pyrazol-1-yl)pyrimidin-2-ylamino)-1-ethyl-1H-indol-3-yl)methanone]
[2]
  IC50: 0.465 µM
[3]; [4]
  IC50: 0.00585 µM

## Cc1nn(-c2ccnc(Nc3ccc4c(c3)c(S(C)(=O)=O)nn4C)n2)cc1CN1C[C@H](O)CO1 [Compound 26, (S)-2-((3-methyl-1-(2-(1-methyl-3-(methylsulfonyl)-1H-indazol-5-ylamino)pyrimidin-4-yl)-1H-pyrazol-4-yl)methyl)isoxazolidin-4-ol]
[2]
  IC50: 1.06 µM
[3]; [4]
  IC50: 0.0871 µM

## Cc1nn(-c2ccnc(Nc3ccc4c(c3)c(C(=O)C3CC3)cn4S(C)(=O)=O)n2)cc1CN1C[C@H](O)CO1 [Compound 27, (S)-cyclopropyl(5-(4-(4-((4-hydroxyisoxazolidin-2-yl)methyl)-3-methyl-1H-pyrazol-1-yl)pyrimidin-2-ylamino)-1-(methylsulfonyl)-1H-indol-3-yl)methanone]
[2]
  IC50: 0.043 µM
[3]; [4]
  IC50: 0.00589 µM

## CCn1cc(C(=O)C2CC2)c2cc(Nc3nccc(-n4cc(C)c(CN5C[C@H](O)CO5)c4)n3)ccc21 [Compound 29, (S)-cyclopropyl(1-ethyl-5-(4-(3-((4-hydroxyisoxazolidin-2-yl)methyl)-4-methyl-1H-pyrrol-1-yl)pyrimidin-2-ylamino)-1H-indol-3-yl)methanone]
[2]
  IC50: 0.07 µM
[3]
  IC50: 0.0695 µM

## O=C(c1cn(CCF)c2ccc(Nc3nccc(-n4cc(CN5C[C@H](O)CO5)cn4)n3)cc12)C1CC1 [Compound 32, (S)-cyclopropyl(1-(2-fluoroethyl)-5-(4-(4-((4-hydroxyisoxazolidin-2-yl)methyl)-1H-pyrazol-1-yl)pyrimidin-2-ylamino)-1H-indol-3-yl)methanone]
[2]
  IC50: 0.053 µM
[3]; [4]
  IC50: 0.00352 µM

## O=C(c1cn(CC(F)F)c2ccc(Nc3nccc(-n4cc(CN5C[C@H](O)CO5)cn4)n3)cc12)C1CC1 [Compound 33, (S)-cyclopropyl(1-(2,2-difluoroethyl)-5-(4-(4-((4-hydroxyisoxazolidin-2-yl)methyl)-1H-pyrazol-1-yl)pyrimidin-2-ylamino)-1H-indol-3-yl)methanone]
[2]
  IC50: 0.06 µM
[3]; [4]
  IC50: 0.00534 µM

## O=C(c1cn(CC(F)(F)F)c2ccc(Nc3nccc(-n4cc(CN5C[C@H](O)CO5)cn4)n3)cc12)C1CC1 [Compound 34, (S)-cyclopropyl(5-(4-(4-((4-hydroxyisoxazolidin-2-yl)methyl)-1H-pyrazol-1-yl)pyrimidin-2-ylamino)-1-(2,2,2-trifluoroethyl)-1H-indol-3-yl)methanone]
[2]
  IC50: 0.055 µM
[3]; [4]
  IC50: 0.0058 µM

## COc1cc(Nc2ncc(F)c(Nc3ccc4c(n3)N(COP(=O)(O)O)C(=O)C(C)(C)O4)n2)cc(OC)c1OC [Compound R788, reference compound]
[1]; day 4
  CIA index (arthritic score of test group / vehicle group x 100): 36.7 ± 22.7%
[1]; day 7
  CIA index (arthritic score of test group / vehicle group x 100): 82.2 ± 45.2%
[1]; day 10
  CIA index (arthritic score of test group / vehicle group x 100): 80.3 ± 27.3%
[1]; day 13
  CIA index (arthritic score of test group / vehicle group x 100): 97.8 ± 25.0%
[1]; day 17
  CIA index (arthritic score of test group / vehicle group x 100): 73.3 ± 11.2%
[1]; day 19
  CIA index (arthritic score of test group / vehicle group x 100): 72.1 ± 11.2%

## cyclopropyl(1-(2-fluoroethyl)-5-(4-(4-(((S)-4-hydroxyisoxazolidin-2-yl)methyl)-3-methyl-1H-pyrazol-1-yl)pyrimidin-2-ylamino)indolin-3-yl)methanone [Compound 24]
[2]
  IC50: 0.047 µM
[3]; [4]
  IC50: 0.0031 µM

From US9212178B2, “Substituted pyrimidine compounds and their use as SYK inhibitors” (Genosco, priority 2013, dated 2015)
